# Reference: PubChem BioAssay AID1845201 (Molecular Pharmacology Branch, DTP, NCI, 2023)
# Several values for one entry are separate records, joined by “and”; a condition that tells them apart may be missing. Equal entries are not always repeated.
# Tested on: COR L88 complex tumor spheroid viability
# Experiment: Anticancer human tumor COR L88 cell line growth inhibition;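 note: compound exposure lasted 7 days before viability readout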;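 for viability, T/C: percent of DMSO vehicle-treated spheroids = 100%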
# Settings: for viability, T/C: stronger effect = lower value
# How it was run: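 Single agents and combinations were tested on spheroids built from tumor cells plus HUVEC and hMSC, at half-log dilutions starting at or near clinical Cmax, else 10 microM; final DMSO 0.25% (v/v).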
# [1] = curve of first compound, second compound 0.003 µM
# [2] = second compound 0.003 µM, first compound 0.00949 µM
# [3] = second compound 0.003 µM, first compound 0.03 µM
# [4] = second compound 0.003 µM, first compound 0.0949 µM
# [5] = second compound 0.003 µM, first compound 0.3 µM
# [6] = second compound 0.003 µM, first compound 0.949 µM
# [7] = second compound 0.003 µM, first compound 3 µM
# [8] = curve of first compound, second compound 30 pM
# [9] = curve of first compound, second compound 94.9 pM
# [10] = curve of first compound, second compound 0.0003 µM
# [11] = curve of first compound, second compound 0.000949 µM
# [12] = second compound 30 pM, first compound 0.0949 µM
# [13] = second compound 30 pM, first compound 0.3 µM
# [14] = second compound 30 pM, first compound 0.949 µM
# [15] = second compound 30 pM, first compound 3 µM
# [16] = second compound 94.9 pM, first compound 0.0949 µM
# [17] = second compound 94.9 pM, first compound 0.3 µM
# [18] = second compound 94.9 pM, first compound 0.949 µM
# [19] = second compound 94.9 pM, first compound 3 µM
# [20] = second compound 0.0003 µM, first compound 0.0949 µM
# [21] = second compound 0.0003 µM, first compound 0.3 µM
# [22] = second compound 0.0003 µM, first compound 0.949 µM
# [23] = second compound 0.0003 µM, first compound 3 µM
# [24] = second compound 0.000949 µM, first compound 0.0949 µM
# [25] = second compound 0.000949 µM, first compound 0.3 µM
# [26] = second compound 0.000949 µM, first compound 0.949 µM
# [27] = second compound 0.000949 µM, first compound 3 µM
smiles,measurement,setting,value
Cn1ncnc1[C@H]1c2n[nH]c(=O)c3cc(F)cc(c23)N[C@@H]1c1ccc(F)cc1 + CC[C@@]1(O)C(=O)OCc2c1cc1n(c2=O)Cc2cc3c(CN(C)C)c(O)ccc3nc2-1,IC50,[1],90.9 nM
same,IC50,"curve of first compound, second compound 0.00949 µM",< 9.49 nM
same,IC50,"curve of first compound, second compound 0.03 µM",< 9.49 nM
same,IC50,"curve of first compound, second compound 0.0949 µM",< 9.49 nM
same,IC50,"curve of first compound, second compound 0.3 µM",< 9.49 nM
same,"viability, T/C",[2],65.9%
same,"viability, T/C",[3],61.9%
same,"viability, T/C",[4],47.4%
same,"viability, T/C",[5],42.4%
same,"viability, T/C",[6],41.1%
same,"viability, T/C",[7],38.3%
same,"viability, T/C","second compound 0.00949 µM, first compound 0.00949 µM",49.7%
same,"viability, T/C","second compound 0.00949 µM, first compound 0.03 µM",44%
same,"viability, T/C","second compound 0.00949 µM, first compound 0.0949 µM",44.1%
same,"viability, T/C","second compound 0.00949 µM, first compound 0.3 µM",43.1%
same,"viability, T/C","second compound 0.00949 µM, first compound 0.949 µM",40.2%
same,"viability, T/C","second compound 0.00949 µM, first compound 3 µM",40.6%
same,"viability, T/C","second compound 0.03 µM, first compound 0.00949 µM",48.2%
same,"viability, T/C","second compound 0.03 µM, first compound 0.03 µM",49.5%
same,"viability, T/C","second compound 0.03 µM, first compound 0.0949 µM",43.2%
same,"viability, T/C","second compound 0.03 µM, first compound 0.3 µM",41.5%
same,"viability, T/C","second compound 0.03 µM, first compound 0.949 µM",38.1%
same,"viability, T/C","second compound 0.03 µM, first compound 3 µM",36.5%
same,"viability, T/C","second compound 0.0949 µM, first compound 0.00949 µM",41.2%
same,"viability, T/C","second compound 0.0949 µM, first compound 0.03 µM",38.4%
same,"viability, T/C","second compound 0.0949 µM, first compound 0.0949 µM",37.3%
same,"viability, T/C","second compound 0.0949 µM, first compound 0.3 µM",34.9%
same,"viability, T/C","second compound 0.0949 µM, first compound 0.949 µM",31.6%
same,"viability, T/C","second compound 0.0949 µM, first compound 3 µM",24.5%
same,"viability, T/C","second compound 0.3 µM, first compound 0.00949 µM",36%
same,"viability, T/C","second compound 0.3 µM, first compound 0.03 µM",32.6%
same,"viability, T/C","second compound 0.3 µM, first compound 0.0949 µM",32.4%
same,"viability, T/C","second compound 0.3 µM, first compound 0.3 µM",26.9%
same,"viability, T/C","second compound 0.3 µM, first compound 0.949 µM",24.6%
same,"viability, T/C","second compound 0.3 µM, first compound 3 µM",17.4%
Cc1sc2c(c1C)C(c1ccc(Cl)cc1)=NC(CC(=O)Nc1ccc(O)cc1)c1nnc(C)n1-2 (configuration not stated) + COc1cc2c(cc1O)CCNC21CSC2c3c(OC(C)=O)c(C)c4c(c3C(COC1=O)N1C(O)C3Cc5cc(C)c(OC)c(O)c5C(C21)N3C)OCO4,IC50,[8],455 nM
same,IC50,[9],432 nM
same,IC50,[10],464 nM
same,IC50,[11],104 nM
same,IC50,[1],< 9.49 nM
same,"viability, T/C","second compound 30 pM, first compound 0.00949 µM",92.5%
same,"viability, T/C","second compound 30 pM, first compound 0.03 µM",90.9%
same,"viability, T/C",[12],101%
same,"viability, T/C",[13],65.3%
same,"viability, T/C",[14],23.6%
same,"viability, T/C",[15],14.8%
same,"viability, T/C","second compound 94.9 pM, first compound 0.00949 µM",92.6%
same,"viability, T/C","second compound 94.9 pM, first compound 0.03 µM",96.5%
same,"viability, T/C",[16],94.2%
same,"viability, T/C",[17],55.3%
same,"viability, T/C",[18],33.5%
same,"viability, T/C",[19],14.1%
same,"viability, T/C","second compound 0.0003 µM, first compound 0.00949 µM",76.1%
same,"viability, T/C","second compound 0.0003 µM, first compound 0.03 µM",118%
same,"viability, T/C",[20],122%
same,"viability, T/C",[21],72.6%
same,"viability, T/C",[22],15.1%
same,"viability, T/C",[23],3.51%
same,"viability, T/C","second compound 0.000949 µM, first compound 0.00949 µM",87.4%
same,"viability, T/C","second compound 0.000949 µM, first compound 0.03 µM",84.6%
same,"viability, T/C",[24],54%
same,"viability, T/C",[25],5.62%
same,"viability, T/C",[26],1.33%
same,"viability, T/C",[27],0.42%
same,"viability, T/C",[2],0.68%
same,"viability, T/C",[3],0.7%
same,"viability, T/C",[4],0.6%
same,"viability, T/C",[5],0.57%
same,"viability, T/C",[6],0.69%
same,"viability, T/C",[7],1.49%
Cn1ncnc1[C@H]1c2n[nH]c(=O)c3cc(F)cc(c23)N[C@@H]1c1ccc(F)cc1,"viability, T/C",compound 0.00949 µM,88.5% and 92.9% and 87.1%
same,"viability, T/C",compound 0.03 µM,79.6% and 66.2% and 79.5%
same,"viability, T/C",compound 0.0949 µM,66.9% and 62.7% and 56%
same,"viability, T/C",compound 0.3 µM,59.6% and 54.9% and 49.2%
same,"viability, T/C",compound 0.949 µM,43.3% and 45% and 39.5%
same,"viability, T/C",compound 3 µM,43.6% and 37.6% and 40.6%
same,IC50,curve of compound,665 nM and 353 nM and 293 nM
O=C(c1cc(Cc2n[nH]c(=O)c3ccccc23)ccc1F)N1CCN(C(=O)C2CC2)CC1 + COc1cc2c(cc1O)CCNC21CSC2c3c(OC(C)=O)c(C)c4c(c3C(COC1=O)N1C(O)C3Cc5cc(C)c(OC)c(O)c5C(C21)N3C)OCO4,IC50,[8],14500 nM
same,IC50,[9],11300 nM
same,IC50,[10],> 30000 nM
same,IC50,[11],683 nM
same,IC50,[1],< 94.9 nM
same,"viability, T/C",[12],93.6%
same,"viability, T/C",[13],107%
same,"viability, T/C",[14],95%
same,"viability, T/C",[15],81.7%
same,"viability, T/C","second compound 30 pM, first compound 9.49 µM",54.6%
same,"viability, T/C","second compound 30 pM, first compound 30 µM",42.4%
same,"viability, T/C",[16],98.9%
same,"viability, T/C",[17],96.4%
same,"viability, T/C",[18],101%
same,"viability, T/C",[19],71.8%
same,"viability, T/C","second compound 94.9 pM, first compound 9.49 µM",54.9%
same,"viability, T/C","second compound 94.9 pM, first compound 30 µM",43%
same,"viability, T/C",[20],74.9%
same,"viability, T/C",[21],63.4%
same,"viability, T/C",[22],64.1%
same,"viability, T/C",[23],60.6%
same,"viability, T/C","second compound 0.0003 µM, first compound 9.49 µM",48.5%
same,"viability, T/C","second compound 0.0003 µM, first compound 30 µM",56.8%
same,"viability, T/C",[24],57.2%
same,"viability, T/C",[25],56.2%
same,"viability, T/C",[26],42.6%
same,"viability, T/C",[27],40.7%
same,"viability, T/C","second compound 0.000949 µM, first compound 9.49 µM",13.7%
same,"viability, T/C","second compound 0.000949 µM, first compound 30 µM",2.22%
same,"viability, T/C",[4],1.02%
same,"viability, T/C",[5],1.05%
same,"viability, T/C",[6],0.95%
same,"viability, T/C",[7],1.92%
same,"viability, T/C","second compound 0.003 µM, first compound 9.49 µM",2.21%
same,"viability, T/C","second compound 0.003 µM, first compound 30 µM",3.25%
CNCc1ccc(-c2cc(-c3nc(-c4ccc(S(=O)(=O)C(C)C)cc4)cnc3N)on2)cc1 + Cn1nnc2c(C(N)=O)ncn2c1=O,IC50,"curve of first compound, second compound 1 µM",618 nM
same,IC50,"curve of first compound, second compound 3.16 µM",639 nM
same,IC50,"curve of first compound, second compound 10 µM",463 nM
same,IC50,"curve of first compound, second compound 31.6 µM",448 nM
same,IC50,"curve of first compound, second compound 100 µM",386 nM
same,"viability, T/C","second compound 1 µM, first compound 0.00949 µM",99.9%
same,"viability, T/C","second compound 1 µM, first compound 0.03 µM",97.6%
same,"viability, T/C","second compound 1 µM, first compound 0.0949 µM",102%
same,"viability, T/C","second compound 1 µM, first compound 0.3 µM",72.1%
same,"viability, T/C","second compound 1 µM, first compound 0.949 µM",36.8%
same,"viability, T/C","second compound 1 µM, first compound 3 µM",12.9%
same,"viability, T/C","second compound 3.16 µM, first compound 0.00949 µM",92.9%
same,"viability, T/C","second compound 3.16 µM, first compound 0.03 µM",107%
same,"viability, T/C","second compound 3.16 µM, first compound 0.0949 µM",112%
same,"viability, T/C","second compound 3.16 µM, first compound 0.3 µM",81.3%
same,"viability, T/C","second compound 3.16 µM, first compound 0.949 µM",33.6%
same,"viability, T/C","second compound 3.16 µM, first compound 3 µM",11%
same,"viability, T/C","second compound 10 µM, first compound 0.00949 µM",87.4%
same,"viability, T/C","second compound 10 µM, first compound 0.03 µM",99.7%
same,"viability, T/C","second compound 10 µM, first compound 0.0949 µM",95.3%
same,"viability, T/C","second compound 10 µM, first compound 0.3 µM",63.8%
same,"viability, T/C","second compound 10 µM, first compound 0.949 µM",25.9%
same,"viability, T/C","second compound 10 µM, first compound 3 µM",10.8%
same,"viability, T/C","second compound 31.6 µM, first compound 0.00949 µM",80.7%
same,"viability, T/C","second compound 31.6 µM, first compound 0.03 µM",90.9%
same,"viability, T/C","second compound 31.6 µM, first compound 0.0949 µM",101%
same,"viability, T/C","second compound 31.6 µM, first compound 0.3 µM",62.5%
same,"viability, T/C","second compound 31.6 µM, first compound 0.949 µM",25.1%
same,"viability, T/C","second compound 31.6 µM, first compound 3 µM",11.2%
same,"viability, T/C","second compound 100 µM, first compound 0.00949 µM",78.3%
same,"viability, T/C","second compound 100 µM, first compound 0.03 µM",81%
same,"viability, T/C","second compound 100 µM, first compound 0.0949 µM",76.5%
same,"viability, T/C","second compound 100 µM, first compound 0.3 µM",58%
same,"viability, T/C","second compound 100 µM, first compound 0.949 µM",21.3%
same,"viability, T/C","second compound 100 µM, first compound 3 µM",9.59%
